Where two headings read alike, the source gives them in different places. Numbered stars: 1 amine (or outer) side, 2 acyl side, 3 side chain; on linkers, the order of the positions; unused ones are H or OH. Square brackets hold non-standard residues; d marks the D form. Side chains are listed from the residue outwards. Peptide text beside a SMILES is read from it. * marks the point of attachment. C20 diacid = O=C(O)CCCCCCCCCCCCCCCCCCC(=O)*; γGlu = O=C(O)[C@H](CCC(=O)[*:2])N[*:1]; AEEA = NCCOCCOCC(=O)O; Aib = CC(C)(N)C(=O)O
Experiments:
GLP1R = GLP1R (Homo sapiens, UniProt P43220); experiment: hGLP1R potency, cAMP accumulation in CHO-K1 cells stably overexpressing hGLP1R; assay type: cell-based; set-up: host or cells: CHO-K1; details: for EC50: cAMP accumulation; for SCTR EC50/GLP1R EC50 ratio: cAMP accumulation in CHO-K1 cells; for Selectivity: SCTR EC50/GLP1R EC50 ratio
Chain of GLP1R (P43220 24-463): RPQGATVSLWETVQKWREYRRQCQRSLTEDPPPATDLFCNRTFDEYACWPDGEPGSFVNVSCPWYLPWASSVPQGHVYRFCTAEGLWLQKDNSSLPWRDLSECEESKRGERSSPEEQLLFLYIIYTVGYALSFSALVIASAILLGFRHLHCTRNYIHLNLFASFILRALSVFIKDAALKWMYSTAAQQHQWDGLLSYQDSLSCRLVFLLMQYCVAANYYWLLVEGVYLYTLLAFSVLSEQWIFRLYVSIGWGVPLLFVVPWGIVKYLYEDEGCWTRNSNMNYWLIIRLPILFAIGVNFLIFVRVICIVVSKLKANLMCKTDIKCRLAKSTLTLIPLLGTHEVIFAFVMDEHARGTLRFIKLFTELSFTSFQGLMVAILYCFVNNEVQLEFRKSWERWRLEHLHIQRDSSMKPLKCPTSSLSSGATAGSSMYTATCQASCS
Procedure, shortened: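 Cells were plated in DPBS with 0.05% casein and 0.5 mM IBMX, then stimulated for 30 min at room temperature with test compound. cAMP was read by TR-FRET after one hour. EC50 came from variable-slope sigmoid nonlinear regression; purified peptides ran as 11-point 3-fold series, n=2.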

SCTR = SCTR (Homo sapiens, UniProt P47872); experiment: hSCTR potency, cAMP accumulation in CHO-K1 cells stably overexpressing hSCTR; assay type: cell-based; set-up: alternatively Euroscreen ES-712-AF; FAST-0161L; host or cells: CHO-K1; details: cAMP accumulation
Chain of SCTR (P47872 23-440): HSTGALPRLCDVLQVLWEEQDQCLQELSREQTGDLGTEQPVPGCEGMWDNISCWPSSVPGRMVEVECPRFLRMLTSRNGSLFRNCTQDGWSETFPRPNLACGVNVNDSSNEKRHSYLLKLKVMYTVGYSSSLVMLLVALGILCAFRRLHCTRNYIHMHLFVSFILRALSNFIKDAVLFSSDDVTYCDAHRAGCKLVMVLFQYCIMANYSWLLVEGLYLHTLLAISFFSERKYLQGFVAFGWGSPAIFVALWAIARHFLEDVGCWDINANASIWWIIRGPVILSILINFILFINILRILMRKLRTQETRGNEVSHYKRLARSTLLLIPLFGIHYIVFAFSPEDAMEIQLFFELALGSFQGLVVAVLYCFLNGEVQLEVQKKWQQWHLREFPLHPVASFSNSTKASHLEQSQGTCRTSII
Procedure, shortened: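 Division-arrested CHO-K1 cells stably expressing hSCTR were plated in DPBS with 0.05% casein and 0.5 mM IBMX, then stimulated with test peptide for 30 min at room temperature. cAMP was read by HTRF after one hour. EC50 came from variable-slope sigmoidal nonlinear regression.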

[1] = Turbidity of crude library peptides (absorbance at 600 nm); assay type: physicochemical; details: Physical stability of peptides
Procedure, shortened: (§1)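 Values reflect mean ThT emission (ex 450, em 480 nm) over 72 h at 40° C, read every 10 min after 5 min shaking at 700 rpm, plus a single initial absorbance at 600 nm for turbidity. Peptides were at 267 μM, pH 4.0 acetate or pH 7.0 phosphate (50 mM), with 4 μM ThT.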

[2] = Fibril formation of crude library peptides (Thioflavin T); assay type: physicochemical; set-up: key: average ThT fluorescence emission at 480 nm (ex 450 nm), raw units; details: Physical stability of peptides
Procedure, shortened: as §1

[3] = CHO-K1 cells stably overexpressing hGLP1R, read-out: hGLP1R potency (pEC50) (converted)
[4] = selectivity ratio, hSCTR vs hGLP1R
[5] = CHO-K1 cells stably overexpressing hSCTR, read-out: hSCTR potency (pEC50) (converted)
[6] = CHO-K1 cells overexpressing hGLP1R, read-out: hGLP1R pEC50 (converted)
[7] = selectivity for hGLP1R over hSCTR
[8] = CHO-K1 cells overexpressing hSCTR, read-out: hSCTR pEC50 (converted)
[9] = CHO-K1 cells overexpressing hGLP1R, read-out: pEC50 hGLPR1 (converted)
[10] = CHO-K1 cells overexpressing hSCTR, read-out: pEC50 hSCTR (converted)

## CC[C@H](C)[C@H](NC(=O)[C@H](Cc1ccccc1)NC(=O)[C@H](CCCNC(=N)N)NC(=O)[C@H](CCC(N)=O)NC(=O)[C@H](CC(C)C)NC(=O)[C@H](C)NC(=O)[C@H](C)NC(=O)CNC(=O)[C@H](CCC(=O)O)NC(=O)[C@H](CC(C)C)NC(=O)[C@H](CC(C)C)NC(=O)[C@H](Cc1ccccc1)NC(=O)[C@H](CO)NC(=O)[C@H](Cc1ccc(O)cc1)NC(=O)[C@H](CC(=O)O)NC(=O)[C@H](CO)NC(=O)[C@@H](NC(=O)[C@H](Cc1ccccc1)NC(=O)[C@@H](NC(=O)CNC(=O)[C@H](CCC(=O)O)NC(=O)C(C)(C)NC(=O)[C@@H](N)Cc1c[nH]cn1)[C@@H](C)O)[C@@H](C)O)C(=O)N[C@@H](CCC(N)=O)C(=O)N[C@@H](Cc1c[nH]c2ccccc12)C(=O)N[C@@H](CC(C)C)C(=O)N[C@H](C(N)=O)C(C)C [compound 202] (H-H[Aib]EGTFTSDYSFLLEGAALQRFIQWLV-NH2)
GLP1R; [3]
  EC50: 0.0398 nM
GLP1R; [4]
  SCTR EC50/GLP1R EC50 ratio: 820
SCTR; [5]
  EC50: 39.8 nM
[1]
  Turbidity (pH 7): 0.60
[2]
  Fibril formation: 260000

## CC[C@H](C)[C@H](NC(=O)[C@H](Cc1ccccc1)NC(=O)[C@H](CCCNC(=N)N)NC(=O)[C@H](CCC(N)=O)NC(=O)[C@H](CC(C)C)NC(=O)[C@H](C)NC(=O)[C@H](C)NC(=O)CNC(=O)[C@H](CCC(=O)O)NC(=O)[C@H](CC(C)C)NC(=O)[C@H](CC(C)C)NC(=O)C(C)(C)NC(=O)[C@H](CO)NC(=O)C(C)(C)NC(=O)[C@H](CC(=O)O)NC(=O)[C@H](CO)NC(=O)[C@@H](NC(=O)[C@H](Cc1ccccc1)NC(=O)[C@@H](NC(=O)CNC(=O)[C@H](CCC(=O)O)NC(=O)C(C)(C)NC(=O)[C@@H](N)Cc1c[nH]cn1)[C@@H](C)O)[C@@H](C)O)C(=O)N[C@@H](CCC(N)=O)C(=O)N[C@@H](Cc1c[nH]c2ccccc12)C(=O)N[C@@H](CC(C)C)C(=O)N[C@H](C(N)=O)C(C)C [compound 107] (H-H[Aib]EGTFTSD[Aib]S[Aib]LLEGAALQRFIQWLV-NH2)
GLP1R; [6]
  EC50: 0.158 nM
GLP1R; [7]
  SCTR EC50/GLP1R EC50 ratio: 6863
SCTR; [8]
  EC50: 1000 nM
[1]
  Turbidity (pH 7): 0.15
[2]
  Fibril formation: 3284

## CC(C)C[C@H](NC(=O)[C@H](CCC(=O)O)NC(=O)[C@H](CCCCNC(=O)COCCOCCNC(=O)COCCOCCNC(=O)CC[C@H](NC(=O)CCCCCCCCCCCCCCCCCCC(=O)O)C(=O)O)NC(=O)[C@H](CC(C)C)NC(=O)[C@@H](NC(=O)[C@H](CO)NC(=O)[C@@H](NC(=O)[C@H](CC(=O)O)NC(=O)[C@H](CO)NC(=O)[C@@H](NC(=O)[C@H](Cc1ccccc1)NC(=O)[C@@H](NC(=O)CNC(=O)[C@H](CCC(=O)O)NC(=O)C(C)(C)NC(=O)[C@@H](N)Cc1c[nH]cn1)[C@@H](C)O)[C@@H](C)O)C(C)C)[C@@H](C)O)C(=O)N[C@@H](C)C(=O)N[C@@H](C)C(=O)N[C@@H](CCC(=O)O)C(=O)N[C@@H](CCC(N)=O)C(=O)N[C@@H](CCCNC(=N)N)C(=O)N[C@@H](Cc1ccccc1)C(=O)N[C@@H](CC(C)C)C(=O)N[C@@H](CCC(=O)O)C(=O)N[C@@H](Cc1c[nH]cn1)C(=O)N[C@@H](CC(C)C)C(=O)N[C@H](C(N)=O)C(C)C [compound 78] (H-H[Aib]EGTFTSDVSTLK([AEEA-AEEA-γGlu-C20 diacid])ELAAEQRFLEHLV-NH2)
GLP1R
  Selectivity: 72127
GLP1R; [9]
  EC50: 0.0501 nM
SCTR; [10]
  EC50: 3980 nM
[1]
  Turbidity (pH 7): 0.08
[2]
  Fibril formation: 8551

## CC(C)C[C@H](NC(=O)[C@H](Cc1ccccc1)NC(=O)[C@H](CCCNC(=N)N)NC(=O)[C@H](CCC(N)=O)NC(=O)[C@H](CO)NC(=O)[C@H](C)NC(=O)[C@H](C)NC(=O)[C@H](Cc1ccccc1)NC(=O)[C@H](CCC(=O)O)NC(=O)[C@H](CCCCNC(=O)COCCOCCNC(=O)COCCOCCNC(=O)CC[C@H](NC(=O)CCCCCCCCCCCCCCCCCCC(=O)O)C(=O)O)NC(=O)[C@H](CC(C)C)NC(=O)[C@H](Cc1ccc(O)cc1)NC(=O)[C@H](CO)NC(=O)[C@@H](NC(=O)[C@H](CC(=O)O)NC(=O)[C@H](CO)NC(=O)[C@@H](NC(=O)[C@H](Cc1ccccc1)NC(=O)[C@@H](NC(=O)CNC(=O)[C@H](CCC(=O)O)NC(=O)C(C)(C)NC(=O)[C@@H](N)Cc1c[nH]cn1)[C@@H](C)O)[C@@H](C)O)C(C)C)C(=O)N[C@@H](CCC(=O)O)C(=O)N[C@@H](Cc1c[nH]cn1)C(=O)N[C@@H](CC(C)C)C(=O)N[C@H](C(N)=O)C(C)C [compound 66] (H-H[Aib]EGTFTSDVSYLK([AEEA-AEEA-γGlu-C20 diacid])EFAASQRFLEHLV-NH2)
GLP1R
  Selectivity: 81752
GLP1R; [9]
  EC50: 0.0398 nM
SCTR; [10]
  EC50: 3160 nM
[1]
  Turbidity (pH 7): 0.08
[2]
  Fibril formation: 201306

## CC[C@H](C)[C@H](NC(=O)[C@H](Cc1ccccc1)NC(=O)[C@H](CCCNC(=N)N)NC(=O)[C@H](CCC(N)=O)NC(=O)[C@H](CC(C)C)NC(=O)[C@H](C)NC(=O)[C@H](C)NC(=O)CNC(=O)[C@H](CCC(=O)O)NC(=O)[C@H](CC(C)C)NC(=O)[C@H](CC(C)C)NC(=O)[C@H](Cc1ccc(O)cc1)NC(=O)[C@H](CO)NC(=O)[C@H](Cc1c[nH]c2ccccc12)NC(=O)[C@H](CC(=O)O)NC(=O)[C@H](CO)NC(=O)[C@@H](NC(=O)[C@H](Cc1ccccc1)NC(=O)[C@@H](NC(=O)CNC(=O)[C@H](CCC(=O)O)NC(=O)C(C)(C)NC(=O)[C@@H](N)Cc1c[nH]cn1)[C@@H](C)O)[C@@H](C)O)C(=O)N[C@@H](CCC(N)=O)C(=O)N[C@@H](Cc1c[nH]c2ccccc12)C(=O)N[C@@H](CC(C)C)C(=O)N[C@H](C(N)=O)C(C)C [compound 189] (H-H[Aib]EGTFTSDWSYLLEGAALQRFIQWLV-NH2)
GLP1R; [3]
  EC50: 0.0158 nM
GLP1R; [4]
  SCTR EC50/GLP1R EC50 ratio: 10195
SCTR; [5]
  EC50: 158 nM
[1]
  Turbidity (pH 7): 0.37
[2]
  Fibril formation: 94029

## CC[C@H](C)[C@H](NC(=O)[C@H](Cc1ccccc1)NC(=O)[C@H](CCCNC(=N)N)NC(=O)[C@H](CCC(N)=O)NC(=O)[C@H](CC(C)C)NC(=O)[C@H](C)NC(=O)[C@H](C)NC(=O)CNC(=O)[C@H](CCC(=O)O)NC(=O)[C@H](CC(C)C)NC(=O)[C@H](CC(C)C)NC(=O)[C@@H](NC(=O)[C@H](CO)NC(=O)[C@@H]1CCCN1C(=O)[C@H](CC(=O)O)NC(=O)[C@H](CO)NC(=O)[C@@H](NC(=O)[C@H](Cc1ccccc1)NC(=O)[C@@H](NC(=O)CNC(=O)[C@H](CCC(=O)O)NC(=O)C(C)(C)NC(=O)[C@@H](N)Cc1c[nH]cn1)[C@@H](C)O)[C@@H](C)O)C(C)C)C(=O)N[C@@H](CCC(N)=O)C(=O)N[C@@H](Cc1c[nH]c2ccccc12)C(=O)N[C@@H](CC(C)C)C(=O)N[C@H](C(N)=O)C(C)C [compound 129] (H-H[Aib]EGTFTSDPSVLLEGAALQRFIQWLV-NH2)
GLP1R; [6]
  EC50: 7.94 nM
GLP1R; [7]
  SCTR EC50/GLP1R EC50 ratio: 1220
SCTR; [8]
  EC50: 10000 nM
[1]
  Turbidity (pH 7): 0.12
[2]
  Fibril formation: 5327

## CC[C@H](C)[C@H](NC(=O)[C@H](Cc1ccccc1)NC(=O)[C@H](CCCNC(=N)N)NC(=O)[C@H](CCC(N)=O)NC(=O)[C@H](CC(C)C)NC(=O)[C@H](C)NC(=O)[C@H](C)NC(=O)CNC(=O)[C@H](CCC(=O)O)NC(=O)[C@H](CC(C)C)NC(=O)[C@H](CC(C)C)NC(=O)[C@H](Cc1c[nH]c2ccccc12)NC(=O)[C@H](CO)NC(=O)[C@@H](NC(=O)[C@H](CC(=O)O)NC(=O)[C@H](CO)NC(=O)[C@@H](NC(=O)[C@H](Cc1ccccc1)NC(=O)[C@@H](NC(=O)CNC(=O)[C@H](CCC(=O)O)NC(=O)C(C)(C)NC(=O)[C@@H](N)Cc1c[nH]cn1)[C@@H](C)O)[C@@H](C)O)C(C)C)C(=O)N[C@@H](CCC(N)=O)C(=O)N[C@@H](Cc1c[nH]c2ccccc12)C(=O)N[C@@H](CC(C)C)C(=O)N[C@H](C(N)=O)C(C)C [compound 183] (H-H[Aib]EGTFTSDVSWLLEGAALQRFIQWLV-NH2)
GLP1R; [6]
  EC50: 0.0501 nM
GLP1R; [7]
  SCTR EC50/GLP1R EC50 ratio: 3127
SCTR; [8]
  EC50: 158 nM
[1]
  Turbidity (pH 7): 0.67
[2]
  Fibril formation: 172171

Reference: US20260201008A1, “SECRETIN-DERIVED GLP1R SELECTIVE AGONISTS” (GUBRA A/S, priority 2023, published 2026)
